Measurements taken from US8338565B2, “Macrocyclic compounds for inhibition of tumor necrosis factor alpha” (Ensemble Therapeutics Corporation, priority 2008, dated 2012).
Numbered stars: 1 amine (or outer) side, 2 acyl side, 3 side chain; on linkers, the order of the positions; unused ones are H or OH. Bridge positions count the residues as written; N and C are the ends. Square brackets hold non-standard residues; d marks the D form. Peptide text beside a SMILES is read from it. * marks the point of attachment. Phe(4-CF3) = N[C@@H](Cc1ccc(C(F)(F)F)cc1)C(=O)O; Phe(4-COOH) = N[C@@H](Cc1ccc(C(=O)O)cc1)C(=O)O; dPhe(3,4-F2) = N[C@H](Cc1ccc(F)c(F)c1)C(=O)O; Bip = N[C@@H](Cc1ccc(-c2ccccc2)cc1)C(=O)O; dPhe(4-NH2) = Nc1ccc(C[C@@H](N)C(=O)O)cc1; Phe(4-NH2) = Nc1ccc(C[C@H](N)C(=O)O)cc1; dPhe(2-Cl) = N[C@H](Cc1ccccc1Cl)C(=O)O; Diglycolyl = O=C(COCC(=O)[*:2])[*:1]; d(hhPhe) = N[C@H](CCCc1ccccc1)C(=O)O; d(hPhe) = N[C@H](CCc1ccccc1)C(=O)O; d2Thi = N[C@H](Cc1cccs1)C(=O)O; dPhg = N[C@@H](C(=O)O)c1ccccc1; Suc = O=C(CCC(=O)[*:2])[*:1]; Ac3c = NC1(C(=O)O)CC1; OtBu = CC(C)(C)O*; βAla = NCCC(=O)O

These molecules were tested against T1, TNFα / TNFα receptor (TNFα R1/Fc) (Homo sapiens, UniProt P01375) (assay: Inhibition of binding of TNFα to the TNFα receptor (plate ELISA competition)). Settings: Activity (IC50, inhibition of TNFα binding to TNFα R1/Fc), Table 2.
T1 construct: purchased R&D Systems
T1 sequence (P01375 77-233 limits assumed, species assumed): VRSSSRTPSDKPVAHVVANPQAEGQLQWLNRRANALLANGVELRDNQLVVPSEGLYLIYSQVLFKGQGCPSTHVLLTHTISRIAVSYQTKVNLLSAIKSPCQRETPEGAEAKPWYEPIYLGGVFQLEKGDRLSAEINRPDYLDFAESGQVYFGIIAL
Method in brief: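 Plates were coated with TNFα at 15 nM. Test compound and 8.33 nM receptor-Fc (PBST, 2% DMSO) were first mixed in solution for 30 min at room temperature, then transferred to the plates for another 30 min. Competition was read by absorbance at 450 nm after HRP anti-human IgG Fc detection with TMB.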

Compound | IC50 [µM]
O=C1COc2ccc(cc2)C[C@@H](C(=O)N[C@@H](Cc2ccccc2)C(=O)O)NC(=O)[C@H](CCc2ccccc2)NC(=O)[C@@H](Cc2ccc(-c3ccccc3)cc2)NC(=O)[C@H](Cc2ccncc2)N1 [Compound 554] | < 10

Same assay, conditions: Table 2; read-out: Activity (IC50, inhibition of TNFα binding to TNFα R1/Fc)

IC50 [µM] | Compound
< 10 | O=C1COc2ccc(cc2)C[C@@H](C(=O)O)NC(=O)[C@H](Cc2ccc(-c3ccccc3)cc2)NC(=O)[C@@H](Cc2ccc(-c3ccccc3)cc2)NC(=O)[C@H](CCc2ccccc2)N1 [Compound 725]
> 100 | COC(=O)[C@@H]1Cc2ccc(cc2)NC(=O)CCC(=O)N[C@H](CC(=O)O)C(=O)N[C@@H](Cc2ccc(C(F)(F)F)cc2)C(=O)N[C@H](Cc2ccccc2)C(=O)N1 [Compound 206] ([dD][Phe(4-CF3)][dF][Phe(4-NH2)]-OMe; linker N-4 via Suc)
< 10 | O=C1COc2ccc(cc2)C[C@@H](C(=O)O)NC(=O)[C@H](CCc2ccccc2)NC(=O)[C@@H](Cc2ccc(-c3ccccc3)cc2)NC(=O)[C@H](Cc2ccccn2)N1 [Compound 660]
< 10 | O=C(O)[C@H](Cc1ccccc1)NC(=O)[C@H]1Cc2ccc(cc2)NC(=O)[C@H](O)[C@@H](O)C(=O)N[C@H](Cc2cccs2)C(=O)N[C@@H](Cc2ccc(-c3ccccc3)cc2)C(=O)N[C@H](CCc2ccccc2)C(=O)N1 [Compound 429]
< 10 | O=C1COc2ccc(cc2)C[C@@H](C(=O)N[C@@H](Cc2ccc(O)cc2)C(=O)O)NC(=O)[C@H](CCc2ccccc2)NC(=O)[C@@H](Cc2ccc(-c3ccccc3)cc2)NC(=O)[C@H](Cc2ccc(-c3ccncc3)cc2)N1 [Compound 585]
< 10 | O=C1COc2ccc(cc2)C[C@@H](C(=O)NC2(C(=O)O)CC2)NC(=O)[C@H](CCc2ccccc2)NC(=O)[C@@H](Cc2ccc(-c3ccccc3)cc2)NC(=O)[C@H](Cc2cccs2)N1 [Compound 478]
30 to 100 | O=C1CCC(=O)N[C@H](Cc2cccs2)C(=O)N[C@@H](Cc2ccc(-c3ccccc3)cc2)C(=O)N[C@H](Cc2ccccc2)C(=O)N[C@H](C(=O)N[C@@H](CO)C(=O)O)Cc2ccc(cc2)N1 [Compound 22] ([d2Thi][Bip][dF][Phe(4-NH2)]S-OH; linker N-4 via Suc)
30 to 100 | O=C1CCC(=O)N[C@H](CCCc2ccccc2)C(=O)N[C@@H](Cc2ccc(C(F)(F)F)cc2)C(=O)N[C@H](Cc2ccccc2)C(=O)N[C@H](C(=O)O)Cc2ccc(cc2)N1 [Compound 136] ([d(hhPhe)][Phe(4-CF3)][dF][Phe(4-NH2)]-OH; linker N-4 via Suc)
< 10 | O=C(O)[C@@H]1Cc2ccc(cc2)NC(=O)[C@H](O)[C@@H](O)C(=O)N[C@H](Cc2cccs2)C(=O)N[C@@H](Cc2ccc(-c3ccccc3)cc2)C(=O)N[C@H](Cc2cccs2)C(=O)N1 [Compound 283]
10 to 30 | O=C1CCC(=O)N[C@H](Cc2cccs2)C(=O)N[C@@H](Cc2ccc(-c3ccccc3)cc2)C(=O)N[C@H](Cc2ccccc2)C(=O)N[C@H](C(=O)O)Cc2ccc(cn2)N1 [Compound 545]
> 100 | O=C1COc2ccc(cc2)C[C@@H](C(=O)O)NC(=O)[C@H](c2ccccc2)NC(=O)[C@H](Cc2ccc(-c3ccccc3)cc2)NC(=O)[C@H](Cc2cccs2)N1 [Compound 291]
30 to 100 | O=C(O)[C@@H]1Cc2ccc(cc2)NC(=O)[C@H](O)[C@@H](O)C(=O)N[C@H](Cc2cccnc2)C(=O)N[C@@H](Cc2ccc(-c3ccccc3)cc2)C(=O)N[C@H](Cc2ccccc2)C(=O)N1 [Compound 311]
30 to 100 | CC(C)(C)OC(=O)CC[C@H]1NC(=O)[C@H](Cc2ccc(-c3ccccc3)cc2)NC(=O)[C@@H](Cc2cccs2)NC(=O)CCC(=O)Nc2ccc(cc2)C[C@@H](C(=O)O)NC1=O [Compound 67] ([d2Thi][Bip][dE](OtBu)[Phe(4-NH2)]-OH; linker N-4 via Suc)
> 100 | O=C1CCC(=O)N[C@H](c2ccccc2)C(=O)N[C@@H](Cc2ccc(-c3ccccc3)cc2)C(=O)N[C@H](Cc2ccccc2)C(=O)N[C@H](C(=O)O)Cc2ccc(cc2)N1 [Compound 120] ([dPhg][Bip][dF][Phe(4-NH2)]-OH; linker N-4 via Suc)
10 to 30 | O=C(O)[C@@H]1Cc2ccc(cc2)NC(=O)[C@H](O)[C@@H](O)C(=O)N[C@H](Cc2ccccc2Cl)C(=O)N[C@@H](Cc2ccc(-c3ccccc3)cc2)C(=O)N[C@H](Cc2ccccc2)C(=O)N1 [Compound 315]
> 100 | O=C1COc2ccc(cc2)C[C@@H](C(=O)O)NC(=O)[C@@H](Cc2ccccc2)NC(=O)[C@H](Cc2ccc(C(F)(F)F)cc2)NC(=O)[C@@H](CCc2ccccc2)N1 [Compound 216]
< 10 | O=C1COc2ccc(cc2)C[C@@H](C(=O)N[C@H](Cc2ccccc2)C(=O)O)NC(=O)[C@H](CCc2ccccc2)NC(=O)[C@@H](Cc2ccc(-c3ccccc3)cc2)NC(=O)[C@H](Cc2ccc(-c3ccncc3)cc2)N1 [Compound 582]
< 10 | O=C1COc2ccc(cc2)C[C@@H](C(=O)O)NC(=O)[C@H](CCc2ccccc2)NC(=O)[C@@H](Cc2ccc(-c3ccccc3)cc2)NC(=O)[C@H](Cc2cccc3ccccc23)N1 [Compound 694]
> 100 | C[C@@H]1NC(=O)[C@@H](Cc2cccs2)NC(=O)CCC(=O)Nc2ccc(cc2)C[C@@H](C(=O)O)NC(=O)[C@@H](Cc2ccccc2)NC1=O [Compound 45] ([d2Thi]A[dF][Phe(4-NH2)]-OH; linker N-4 via Suc)

IC50 [µM] | Compound
30 to 100 | O=C1CCC(=O)N[C@H](Cc2ccc(F)c(F)c2)C(=O)N[C@@H](Cc2ccc(C(F)(F)F)cc2)C(=O)N[C@H](Cc2ccccc2)C(=O)N[C@H](C(=O)O)Cc2ccc(cc2)N1 [Compound 135] ([dPhe(3,4-F2)][Phe(4-CF3)][dF][Phe(4-NH2)]-OH; linker N-4 via Suc)
< 10 | O=C1COc2ccc(cc2)C[C@H](C(=O)O)NC(=O)[C@H](CCc2ccccc2)NC(=O)[C@@H](Cc2ccc(-c3ccccc3)cc2)NC(=O)[C@H](Cc2cccs2)N1 [Compound 673]
< 10 | O=C1COc2ccc(cc2)C[C@@H](C(=O)O)NC(=O)[C@@H](Cc2ccncc2)NC(=O)[C@H](Cc2ccc(-c3ccccc3)cc2)NC(=O)[C@@H](Cc2cccs2)N1 [Compound 536]
10 to 30 | O=C1COc2ccc(cc2)C[C@@H](C(=O)O)NC(=O)[C@@H](CCc2ccccc2)NC(=O)[C@H](Cc2ccc(Cl)cc2Cl)NC(=O)[C@@H](CCc2ccccc2)N1 [Compound 149]
< 10 | O=C1COc2ccc(cc2)C[C@@H](C(=O)N[C@H](CCc2ccccc2)C(=O)O)NC(=O)[C@H](Cc2ccccc2F)NC(=O)[C@@H](Cc2ccc(-c3ccccc3)cc2)NC(=O)[C@H](Cc2c[nH]c3ccccc23)N1 [Compound 741]
< 10 | O=C(O)CCNC(=O)[C@@H]1Cc2ccc(cc2)OCC(=O)N[C@@H](Cc2ccc(-c3ccccc3)cc2)C(=O)N[C@H](Cc2ccc(-c3ccccc3)cc2)C(=O)N[C@@H](CCc2ccccc2)C(=O)N1 [Compound 569]
> 100 | O=C(O)[C@@H]1Cc2ccc(cc2)NC(=O)[C@H](O)[C@@H](O)C(=O)N[C@H](Cc2cccs2)C(=O)N[C@@H](Cc2ccc(Cl)cc2Cl)C(=O)N[C@H](Cc2ccccc2)C(=O)N1 [Compound 189]
10 to 30 | O=C1CCC(=O)N[C@H](CCc2ccccc2)C(=O)N[C@@H](Cc2ccc(C(F)(F)F)cc2)C(=O)N[C@H](Cc2ccccc2)C(=O)N[C@@H](C(=O)NC2(C(=O)O)CC2)Cc2ccc(cc2)N1 [Compound 17] ([d(hPhe)][Phe(4-CF3)][dF][dPhe(4-NH2)][Ac3c]-OH; linker N-4 via Suc)
> 100 | O=C1COc2ccc(cc2)C[C@@H](C(=O)O)NC(=O)[C@H](CCc2ccccc2)NC(=O)[C@@H](Cc2ccc(-c3ccccn3)cc2)NC(=O)[C@H](Cc2cccnc2)N1 [Compound 663]
> 100 | O=C1COCC(=O)N[C@H](Cc2cccs2)C(=O)N[C@@H](Cc2ccc(-c3ccccc3)cc2)C(=O)N[C@H](Cc2ccccc2)C(=O)N[C@H](C(=O)O)Cc2ccc(cc2)N1 [Compound 310] ([d2Thi][Bip][dF][Phe(4-NH2)]-OH; linker N-4 via Diglycolyl)
< 10 | O=C1COc2ccc(cc2)C[C@@H](C(=O)O)NC(=O)[C@H](CCc2ccccc2)NC(=O)[C@@H](Cc2ccc(-c3ccccc3)cc2)NC(=O)[C@H](Cc2ccco2)N1 [Compound 687]
< 10 | O=C1COc2ccc(cc2)C[C@@H](C(=O)O)NC(=O)[C@H](Cc2ccc(-c3ccncc3)cc2)NC(=O)[C@@H](Cc2ccc(-c3ccccc3)cc2)NC(=O)[C@H](Cc2cccs2)N1 [Compound 634]
> 100 | O=C(O)[C@@H]1Cc2ccc(cc2)NC(=O)[C@@H]2CCCC[C@@H]2C(=O)N[C@H](Cc2cccs2)C(=O)N[C@@H](Cc2ccc(-c3ccccc3)cc2)C(=O)N[C@H](Cc2ccccc2)C(=O)N1 [Compound 187]
> 100 | O=C(O)[C@H](Cc1ccccc1)NC(=O)[C@H]1Cc2ccc(cc2)NC(=O)[C@H](O)[C@@H](O)C(=O)N[C@H](Cc2cccs2)C(=O)N[C@@H](Cc2ccc(Br)cc2)C(=O)N[C@H](Cc2ccccc2)C(=O)N1 [Compound 431]
30 to 100 | O=C1CCC(=O)N[C@H](Cc2ccccc2Cl)C(=O)N[C@@H](Cc2ccc(C(F)(F)F)cc2)C(=O)N[C@H](Cc2ccccc2)C(=O)N[C@H](C(=O)O)Cc2ccc(cc2)N1 [Compound 132] ([dPhe(2-Cl)][Phe(4-CF3)][dF][Phe(4-NH2)]-OH; linker N-4 via Suc)
10 to 30 | COC(=O)[C@@H](CC(=O)O)NC(=O)[C@@H]1Cc2ccc(cc2)NC(=O)CCC(=O)N[C@H](CCc2ccccc2)C(=O)N[C@@H](Cc2ccc(-c3ccccc3)cc2)C(=O)N[C@H](Cc2ccccc2)C(=O)N1 [Compound 351] ([d(hPhe)][Bip][dF][Phe(4-NH2)][dD]-OMe; linker N-4 via Suc)
< 10 | O=C(O)CCCNC(=O)[C@@H]1Cc2ccc(cc2)OCC(=O)N[C@@H](Cc2c[nH]c3ccccc23)C(=O)N[C@H](Cc2ccc(-c3ccccc3)cc2)C(=O)N[C@@H](Cc2ccccc2F)C(=O)N1 [Compound 718]
< 10 | O=C1CCNC(=O)c2ccc(cc2)C[C@@H](C(=O)O)NC(=O)[C@H](Cc2ccccc2)NC(=O)[C@H](Cc2ccc(-c3ccccc3)cc2)NC(=O)[C@@H](CCc2ccccc2)N1 [Compound 464] ([βAla][d(hPhe)][Bip]F[Phe(4-COOH)]-OH; lactam N-5)
